Measured values reported in patent publication US10604535B2, “Compounds, compositions and methods” (Denali Therapeutics Inc., priority 2016, dated 2020).

Assays:
[1] = system: FADD-deficient Jurkat cells; assay: Cellular necroptosis assay (human TNFα-induced necrosis, CellTiter-Glo); assay type: cell-based; conditions: Homo sapiens, Jurkat, 48 h, TNFα 10 ng/mL, read-out: Cell IC50
[2] = system: human cryopreserved hepatocytes; assay: Metabolic stability (hepatocytes); conditions: human cryopreserved hepatocytes
Description: The metabolic stability of compounds was evaluated in human cryopreserved hepatocytes (BioreclamationlVT, NY, USA) in duplicate. Test articles (or controls) were added to a 24-well incubation plate (Becton Dickinson Labware, USA) containing 0.5×10^6 hepatocytes/mL in suspension. The plate was held at 37° C. and agitated with constant orbital shaking (orbital speed at 350 rpm). At each time point (0, 5, 10, 15, 20, 30, 45, 60, 90, 120, 150 and 180 min) a Tecan Evo robot aspirated 50 μL of the incubation mixture and 100 μL of acetonitrile containing internal standard to quench the reaction. […] Samples were centrifuged (3000 rpm for 10 minutes) and the plate sealed prior to injection onto an LC-MS/MS system.
The appropriate parent/daughter ions were monitored for the test article and IS with the LC-MS/MS system. The intrinsic clearance (Clint; expressed μL/min/million cells) was determined from the first order elimination constant (k, min^−1) of test article decay and the volume of the incubation. […] The intrinsic organ CL was then converted to the hepatic clearance (CLhep) using the well-stirred model as shown below, where Qh is human hepatic blood flow.
Hepatic clearance is expressed as mL/min/kg. The hepatic clearance relates to the flow of blood through the liver that is completely cleared of the compound.

GST-hRIPK1 (8-327) = GST-hRIPK1 (8-327) (Homo sapiens (Human), UniProt Q13546); assay: Fluorescent Polarization Binding (FP Binding) assay
Sequence of GST-hRIPK1 (8-327) (Q13546 8-327): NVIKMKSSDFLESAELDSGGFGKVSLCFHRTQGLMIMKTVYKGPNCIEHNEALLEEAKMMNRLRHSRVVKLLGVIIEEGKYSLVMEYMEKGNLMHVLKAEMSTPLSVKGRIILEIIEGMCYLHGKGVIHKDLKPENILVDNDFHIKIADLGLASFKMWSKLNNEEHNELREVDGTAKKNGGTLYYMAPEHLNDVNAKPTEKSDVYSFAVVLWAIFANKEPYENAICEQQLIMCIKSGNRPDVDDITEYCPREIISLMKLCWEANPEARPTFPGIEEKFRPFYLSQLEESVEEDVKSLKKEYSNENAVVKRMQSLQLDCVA

Structure (SMILES)	Human hepatocyte CLhep Avg [2] [mL/min/kg]	IC50 (GST-hRIPK1 (8-327)) [nM]	IC50 [1] [nM]
CN1C(=O)[C@@H](NC(=O)c2cn(Cc3ccccc3)nn2)[C@H]2C[C@H]2c2nccnc21 [Example 195, 1-benzyl-N-((7S,7aS,8aR)-5-methyl-6-oxo-5,6,7,7a,8,8a-hexahydrocyclopropa[d]pyrazino[2,3-b]azepin-7-yl)-1H-1,2,3-triazole-4-carboxamide]	7.1	0.1 to 1000	–
CN1C(=O)[C@@H](NC(=O)c2cc(Cc3ccccc3)on2)[C@H]2C[C@H]2c2nccnc21 [Example 197, 5-benzyl-N-((7S,7aS,8aR)-5-methyl-6-oxo-5,6,7,7a,8,8a-hexahydrocyclopropa[d]pyrazino[2,3-b]azepin-7-yl)isoxazole-3-carboxamide]	13	0.1 to 1000	–
CN1C(=O)[C@@H](NC(=O)c2nnc(Cc3ccccc3)s2)[C@H]2C[C@H]2c2nccnc21 [Example 198, 5-benzyl-N-((7S,7aS,8aR)-5-methyl-6-oxo-5,6,7,7a,8,8a-hexahydrocyclopropa[d]pyrazino[2,3-b]azepin-7-yl)-1,3,4-thiadiazole-2-carboxamide]	8.5	0.1 to 1000	–

Now from value to molecule, other results behind:

Human hepatocyte CLhep Avg [2] [mL/min/kg]	IC50 (GST-hRIPK1 (8-327)) [nM]	Structure (SMILES)	IC50 [1] [nM]
19	–	CN1C(=O)[C@@H](NC(=O)c2cc(Cc3ccccc3)on2)COc2ccccc21 [C, reference compound]	1
0	0.1 to 1000	CN1C(=O)[C@@H](NC(=O)c2nnc(Cc3cccc(C#N)c3)[nH]2)COc2cccnc21 [Example 161, (S)-5-(3-cyanobenzyl)-N-(5-methyl-4-oxo-2,3,4,5-tetrahydropyrido[3,2-b][1,4]oxazepin-3-yl)-4H-1,2,4-triazole-3-carboxamide]	–
0	0.1 to 1000	CN1C(=O)[C@@H](NC(=O)c2nnc(Cc3cccc(C#N)c3)[nH]2)COc2ccccc21 [Example 163, (S)-5-(3-cyanobenzyl)-N-(5-methyl-4-oxo-2,3,4,5-tetrahydrobenzo[b][1,4]oxazepin-3-yl)-4H-1,2,4-triazole-3-carboxamide]	–
3.1	0.1 to 1000	N#Cc1cccc(Cn2cc(F)c(C(=O)N[C@@H]3C(=O)Nc4c(F)cc(F)cc4[C@@H]4C[C@H]34)n2)c1 [Example 170A, 1-(3-cyanobenzyl)-N-((1aS,2S,8bR)-5,7-difluoro-3-oxo-1,1a,2,3,4,8b-hexahydrobenzo[b]cyclopropa[d]azepin-2-yl)-4-fluoro-1H-pyrazole-3-carboxamide]	–
11	0.1 to 1000	[2H]C([2H])([2H])N1C(=O)[C@@H](NC(=O)c2nn(Cc3ccccc3)cc2F)[C@@H](C)Oc2ncccc21 [Example 205, 1-benzyl-N-((3S,4R)-1-trideuteriomethyl-4-methyl-2-oxo-1,2,3,4-tetrahydropyrido[2,3-b][1,4]oxazepin-3-yl)-4-fluoro-1H-pyrazole-3-carboxamide]	–
